Measured values as given in US20250243196A1, “CITRON KINASE INHIBITORS” (The Cleveland Clinic Foundation, priority 2021, published 2025).

Assays:
Assay in all cases: KinaseProfiler panel
Type in all cases: biochemical
Design in all cases: dose or concentration left out as unconfirmed
Settings in all cases: activity remaining
Axl(h) = Axl(h) (Homo sapiens (Human), UniProt P30530)
Fer(h) = Fer(h) (Homo sapiens (Human), UniProt P16591)
PAK2(h) = PAK2(h) (Homo sapiens (Human), UniProt Q13177)
PAK2(h), sequence (Q13177 whole entry): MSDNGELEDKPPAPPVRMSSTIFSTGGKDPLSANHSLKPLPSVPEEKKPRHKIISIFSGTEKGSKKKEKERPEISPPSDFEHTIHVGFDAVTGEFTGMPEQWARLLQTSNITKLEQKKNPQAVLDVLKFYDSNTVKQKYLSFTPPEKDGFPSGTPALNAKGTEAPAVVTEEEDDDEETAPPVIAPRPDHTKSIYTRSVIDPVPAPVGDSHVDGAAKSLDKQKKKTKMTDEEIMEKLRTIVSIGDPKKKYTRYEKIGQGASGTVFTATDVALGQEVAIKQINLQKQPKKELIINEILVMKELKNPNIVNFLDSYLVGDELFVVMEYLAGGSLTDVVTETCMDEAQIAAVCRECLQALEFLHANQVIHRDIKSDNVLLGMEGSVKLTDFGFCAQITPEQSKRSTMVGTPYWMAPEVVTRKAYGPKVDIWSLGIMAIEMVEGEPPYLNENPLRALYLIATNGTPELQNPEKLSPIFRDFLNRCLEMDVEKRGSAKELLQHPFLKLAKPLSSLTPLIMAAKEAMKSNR

Axl(h), sequence (P30530 26-894): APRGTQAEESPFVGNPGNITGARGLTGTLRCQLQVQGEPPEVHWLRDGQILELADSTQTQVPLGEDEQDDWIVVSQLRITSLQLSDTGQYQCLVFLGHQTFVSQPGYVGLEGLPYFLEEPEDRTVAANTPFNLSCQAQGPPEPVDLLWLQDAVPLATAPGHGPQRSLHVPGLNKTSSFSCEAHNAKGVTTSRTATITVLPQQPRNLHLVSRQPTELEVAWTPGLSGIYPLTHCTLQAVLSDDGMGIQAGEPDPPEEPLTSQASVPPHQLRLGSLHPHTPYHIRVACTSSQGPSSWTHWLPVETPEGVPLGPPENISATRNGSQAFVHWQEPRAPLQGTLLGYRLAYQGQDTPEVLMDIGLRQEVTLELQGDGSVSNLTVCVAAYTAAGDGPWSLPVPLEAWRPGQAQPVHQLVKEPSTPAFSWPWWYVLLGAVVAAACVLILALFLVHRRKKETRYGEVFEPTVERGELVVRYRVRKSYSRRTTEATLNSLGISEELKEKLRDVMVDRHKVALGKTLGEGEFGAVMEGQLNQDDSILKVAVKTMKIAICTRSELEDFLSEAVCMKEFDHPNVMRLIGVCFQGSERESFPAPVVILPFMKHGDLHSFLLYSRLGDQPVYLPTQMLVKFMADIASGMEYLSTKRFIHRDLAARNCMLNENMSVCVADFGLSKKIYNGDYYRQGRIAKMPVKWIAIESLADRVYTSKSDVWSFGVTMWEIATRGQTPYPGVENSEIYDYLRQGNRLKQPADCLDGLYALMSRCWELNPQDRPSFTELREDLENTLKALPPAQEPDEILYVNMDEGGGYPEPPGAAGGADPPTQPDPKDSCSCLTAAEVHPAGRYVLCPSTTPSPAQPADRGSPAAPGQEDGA
Fer(h), sequence (P16591 whole entry): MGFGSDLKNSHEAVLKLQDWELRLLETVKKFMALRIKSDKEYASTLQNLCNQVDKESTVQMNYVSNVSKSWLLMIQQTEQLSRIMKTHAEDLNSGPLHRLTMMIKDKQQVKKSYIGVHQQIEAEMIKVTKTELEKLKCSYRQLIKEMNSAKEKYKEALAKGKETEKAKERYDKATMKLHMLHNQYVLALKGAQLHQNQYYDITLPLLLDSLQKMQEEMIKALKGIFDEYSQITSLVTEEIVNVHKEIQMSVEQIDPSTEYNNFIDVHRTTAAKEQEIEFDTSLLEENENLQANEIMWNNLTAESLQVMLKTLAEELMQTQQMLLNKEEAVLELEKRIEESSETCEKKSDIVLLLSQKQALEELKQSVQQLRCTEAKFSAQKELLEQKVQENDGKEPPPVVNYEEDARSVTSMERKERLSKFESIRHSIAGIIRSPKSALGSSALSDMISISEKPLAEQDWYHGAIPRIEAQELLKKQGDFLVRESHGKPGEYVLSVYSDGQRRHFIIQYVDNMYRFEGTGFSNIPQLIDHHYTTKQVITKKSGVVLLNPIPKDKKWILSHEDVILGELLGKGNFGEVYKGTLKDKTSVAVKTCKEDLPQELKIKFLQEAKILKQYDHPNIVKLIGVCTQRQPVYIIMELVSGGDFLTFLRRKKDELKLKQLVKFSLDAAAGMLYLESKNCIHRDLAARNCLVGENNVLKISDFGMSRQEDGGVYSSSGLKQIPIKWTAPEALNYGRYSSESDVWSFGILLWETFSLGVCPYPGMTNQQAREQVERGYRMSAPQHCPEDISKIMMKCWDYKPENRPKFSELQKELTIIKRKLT

Cc1cc2c(-c3ccc(NC(=O)[C@H](N)CC(C)(C)C)cc3C)ccnc2[nH]1 [Compound F-90, (2R)-2-Amino-4,4-dimethyl-N-[3-methyl-4-(2-methyl-1H-pyrrolo[2,3-b]pyridin-4-yl)phenyl]pentanamide]
% Activity (Axl(h)): 91%
% Activity (Fer(h)): 103%
% Activity (PAK2(h)): 95%
